From patent US7858635B2 (priority 2005, dated 2010)
Like-named read-outs stand apart in the source and are kept apart here.

Experiments:
M1 muscarinic receptor = biological target: T1, M1 muscarinic receptor (Homo sapiens, UniProt P11229); test: Functional mobilization of intracellular calcium (FLIPR, Fluo-3), M1-CHO cells; type: cell-based; settings: for Emax / M1 Efficacy: 100% efficacy is the maximum response obtained with the Carbachol control; for Emax: read-out: M1 Efficacy
T1 construct: expressed in transfected cells; host or cells: CHO cells (M1-CHO, under zeocin and G418 selection)
T1 sequence (P11229 1-460): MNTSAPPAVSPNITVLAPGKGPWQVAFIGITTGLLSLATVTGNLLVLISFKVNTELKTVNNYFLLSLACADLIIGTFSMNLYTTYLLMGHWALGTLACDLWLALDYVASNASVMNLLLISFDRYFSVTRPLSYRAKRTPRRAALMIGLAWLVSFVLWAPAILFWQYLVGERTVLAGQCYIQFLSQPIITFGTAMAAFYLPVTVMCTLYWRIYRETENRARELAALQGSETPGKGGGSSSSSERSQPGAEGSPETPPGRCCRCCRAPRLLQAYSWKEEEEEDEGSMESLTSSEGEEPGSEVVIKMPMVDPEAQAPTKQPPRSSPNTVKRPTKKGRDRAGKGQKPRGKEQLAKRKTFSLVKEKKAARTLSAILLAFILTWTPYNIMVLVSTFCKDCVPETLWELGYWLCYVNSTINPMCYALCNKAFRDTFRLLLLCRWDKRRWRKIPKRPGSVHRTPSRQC
Procedure, shortened: (§1)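 Intracellular calcium was tracked by fluorescence (488/540 nm) over 60 sec after compound addition to dye-loaded CHO cells expressing the receptor. Inhibitory activity used a 15 min pre-incubation before carbachol at the subtype EC80.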

M4 muscarinic receptor = biological target: T2, M4 muscarinic receptor (Homo sapiens, UniProt P08173); test: Functional mobilization of intracellular calcium (FLIPR, Fluo-3), M4-CHO cells; type: cell-based; settings: for Emax / M4 Efficacy: 100% efficacy is the maximum response obtained with the Carbachol control; for Emax: read-out: M4 Efficacy
T2 construct: expressed in transfected cells; host or cells: CHO cells (M4-CHO, under puromycin, zeocin and blasticidin selection)
T2 sequence (P08173 1-479): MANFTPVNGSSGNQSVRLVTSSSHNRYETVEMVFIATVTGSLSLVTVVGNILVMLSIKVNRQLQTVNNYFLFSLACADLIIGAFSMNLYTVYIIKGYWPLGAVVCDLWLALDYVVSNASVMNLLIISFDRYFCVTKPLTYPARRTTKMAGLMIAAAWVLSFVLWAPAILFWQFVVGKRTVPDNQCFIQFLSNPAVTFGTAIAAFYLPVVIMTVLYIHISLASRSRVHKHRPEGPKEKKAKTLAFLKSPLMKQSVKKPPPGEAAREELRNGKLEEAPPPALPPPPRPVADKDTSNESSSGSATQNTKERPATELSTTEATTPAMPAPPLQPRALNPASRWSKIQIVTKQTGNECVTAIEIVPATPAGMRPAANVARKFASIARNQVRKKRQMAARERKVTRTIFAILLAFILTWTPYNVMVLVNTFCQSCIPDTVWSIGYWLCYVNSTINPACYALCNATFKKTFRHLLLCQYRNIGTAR
Procedure, shortened: as §1

[1] = compound nos. 1-454, M1-CHO cells, calcium mobilization
[2] = compound nos. 1-454, M4-CHO cells, calcium mobilization

Row | Compound | Emax (M1 muscarinic receptor; compound nos. 1-454) [%] | M1 Activity (M1 muscarinic receptor; [1]) | Emax (M4 muscarinic receptor; compound nos. 1-454) [%] | M4 Activity (M4 muscarinic receptor; [2]) | other results
1 | CC(C)OC(=O)N1C2CCC1CC(N1CCC3(CC1)CN(C(=O)C1CC1)c1ccc(F)cc13)C2 (stereo not drawn) [compound 345] | < 65 | +++ (activity was measured to be less than or equal to 0.7 μM) | < 55 | ++ (activity was measured to be between 0.1 μM and 4.0 μM) | 
2 | CCOC(=O)C1CCC(N2CCC3(CC2)CN(C(C)=O)c2ccc(F)cc23)CC1 (stereo not drawn) [compound 228] | < 65 | + (activity was measured to be greater than or equal to 3.0 μM) | < 55 | + (activity was measured to be greater than or equal to 4.0 μM) | 
3 | CCOC(=O)N1CCC(N2CCC3(CC2)CN(C(C)=O)c2c(F)cccc23)CC1 [compound 381] | 65 to 85 |  | < 55 |  | M1 Activity (M1 muscarinic receptor; compound nos. 1-454): +++ (activity was measured to be less than or equal to 0.7 μM); M4 Activity (M4 muscarinic receptor; compound nos. 1-454): + (activity was measured to be greater than or equal to 4.0 μM)
4 | CN(C)C(=O)N1CC2(CCN(CC3CCN(c4cnccn4)C3)CC2)c2cc(F)ccc21 (stereo not drawn) [compound 449] |  |  |  |  | M1 Activity (M1 muscarinic receptor; compound nos. 1-454): +++ (activity was measured to be less than or equal to 0.7 μM); M1 Efficacy (M1 muscarinic receptor; compound nos. 1-454): ++ (efficacy was calculated to be between 85% and 65%); M4 Activity (M4 muscarinic receptor; compound nos. 1-454): +++ (activity was measured to be less than or equal to 0.1 μM); M4 Efficacy (M4 muscarinic receptor; compound nos. 1-454): ++ (efficacy was calculated to be between 70% and 55%)
5 | CCc1cnc(N2CCC(N3CCC4(CC3)CN(C(=O)N(C)C)c3ccccc34)CC2)cn1 [compound 466] |  |  |  |  | Emax (M1 muscarinic receptor; compound nos. 455-509): > 100%; M1 Activity (M1 muscarinic receptor; compounds 455-509): ++ (activity was measured to be between 2.0 μM and 5.0 μM); Emax (M4 muscarinic receptor; compound nos. 455-509): 25 to 100%; M4 Activity (M4 muscarinic receptor; compounds 455-509): ++ (activity was measured to be between 2.0 μM and 5.0 μM)
6 | C#CCOC(=O)N1CCC(CN2CCC3(CC2)CN(C(C)=O)c2ccc(F)cc23)CC1 [compound 316] | < 65 | + (activity was measured to be greater than or equal to 3.0 μM) | < 55 | + (activity was measured to be greater than or equal to 4.0 μM) | 
7 | CCOC(=O)N1C2CCC1CC(N1CCC3(CC1)COc1ccc(F)cc13)C2 (stereo not drawn) [compound 42] | > 85 | +++ (activity was measured to be less than or equal to 0.7 μM) | > 70 | ++ (activity was measured to be between 0.1 μM and 4.0 μM) | 
8 | CN(C)C(=O)N1CC2(CCN(C3CCN(c4cccnc4)CC3)CC2)c2cc(F)ccc21 [compound 453] | 65 to 85 |  | 55 to 70 |  | M1 Activity (M1 muscarinic receptor; compound nos. 1-454): +++ (activity was measured to be less than or equal to 0.7 μM); M4 Activity (M4 muscarinic receptor; compound nos. 1-454): +++ (activity was measured to be less than or equal to 0.1 μM)
9 | Fc1ccc2c(c1)C1(CCN(C3CC4CCC(C4)C3)CC1)CN2 (stereo not drawn) [compound 377] | 65 to 85 |  | 55 to 70 |  | M1 Activity (M1 muscarinic receptor; compound nos. 1-454): +++ (activity was measured to be less than or equal to 0.7 μM); M4 Activity (M4 muscarinic receptor; compound nos. 1-454): ++ (activity was measured to be between 0.1 μM and 4.0 μM)
10 | CCCOC(=O)N1C2CCC1CC(N1CCC3(CC1)CN(C(=O)O[C@@H]1CCOC1)c1ccc(F)cc13)C2 (stereo partly drawn) [compound 297] |  | + (activity was measured to be greater than or equal to 3.0 μM) |  | + (activity was measured to be greater than or equal to 4.0 μM) | M1 Efficacy (M1 muscarinic receptor; compound nos. 1-454): ++ (efficacy was calculated to be between 85% and 65%); M4 Efficacy (M4 muscarinic receptor; compound nos. 1-454): ++ (efficacy was calculated to be between 70% and 55%)
11 | CS(=O)(=O)N[C@@H]1CC2(CCN(C[C@H]3C[C@H]4CC[C@H]3C4)CC2)c2ccccc21 [compound 227] | > 85 | +++ (activity was measured to be less than or equal to 0.7 μM) | > 70 | +++ (activity was measured to be less than or equal to 0.1 μM) | 
12 | CCOC(=O)N1CCC(N2CCC3(CC2)CN(C(C)=O)c2ccc(F)cc23)CC1 [compound 413] | < 65 |  | < 55 |  | M1 Activity (M1 muscarinic receptor; compound nos. 1-454): +++ (activity was measured to be less than or equal to 0.7 μM); M4 Activity (M4 muscarinic receptor; compound nos. 1-454): ++ (activity was measured to be between 0.1 μM and 4.0 μM)
13 | COCCOC(=O)N1C2CCC1CC(N1CCC3(CC1)CN(C(=O)N(C)C)c1ccc(F)cc13)C2 (stereo not drawn) [compound 119, 2-methoxyethyl 3-(1-(dimethylcarbamoyl)-5-fluorospiro[indoline-3,4′-piperidine]-1′-yl)-8-azabicyclo[3.2.1]octane-8-carboxylate] | < 65 | +++ (activity was measured to be less than or equal to 0.7 μM) | < 55 | + (activity was measured to be greater than or equal to 4.0 μM) | 
14 | CCOC(=O)N1CCC(N2CCC3(CC2)CN(C(=O)OCCOC)c2ccc(F)cc23)CC1 [compound 38] | > 85 | +++ (activity was measured to be less than or equal to 0.7 μM) | > 70 | +++ (activity was measured to be less than or equal to 0.1 μM) | 
15 | CCOC(=O)N1CCC(N2CCC3(CC2)CN(C(C)=O)c2ccc(-c4ccoc4)cc23)CC1 [compound 128] | < 65 | +++ (activity was measured to be less than or equal to 0.7 μM) | < 55 | ++ (activity was measured to be between 0.1 μM and 4.0 μM) | 
16 | CCOC(=O)N1C2CCC1CC(N1CCC3(CCc4ccccc43)CC1)C2 (stereo not drawn) [compound 365] | 65 to 85 | +++ (activity was measured to be less than or equal to 0.7 μM) | < 55 | + (activity was measured to be greater than or equal to 4.0 μM) | 
17 | COCCOC(=O)N1C2CCC1CC(N1CCC3(CC1)CN(C(=O)C1CC1)c1ccc(F)cc13)C2 (stereo not drawn) [compound 311] | 65 to 85 | +++ (activity was measured to be less than or equal to 0.7 μM) | 55 to 70 | + (activity was measured to be greater than or equal to 4.0 μM) | 
18 | CCOC(=O)N1C2CCC1CC(N1CCC3(CC1)CN(C(=O)NC(C)C)c1ccc(F)cc13)C2 (stereo not drawn) [compound 296] | 65 to 85 | + (activity was measured to be greater than or equal to 3.0 μM) | 55 to 70 | + (activity was measured to be greater than or equal to 4.0 μM) | 
19 | CCOC(=O)N1CCC(N2CCC3(CC2)CN(C(=O)c2cccnc2)c2ccc(F)cc23)CC1 [compound 144] | > 85 | +++ (activity was measured to be less than or equal to 0.7 μM) | > 70 | +++ (activity was measured to be less than or equal to 0.1 μM) | 
20 | CC(=O)N1CC2(CCN(C3CCN(C(=O)OC4CCC4)CC3)CC2)c2cc(F)ccc21 [compound 140] | > 85 | +++ (activity was measured to be less than or equal to 0.7 μM) | > 70 | +++ (activity was measured to be less than or equal to 0.1 μM) | 
21 | C/C=C\c1ccc2c(c1)C1(CCN(C3CCN(C(=O)OCC)CC3)CC1)CN2C(C)=O [compound 407] | < 65 |  | < 55 |  | M1 Activity (M1 muscarinic receptor; compound nos. 1-454): ++ (activity was measured to be between 0.7 μM and 3.0 μM); M4 Activity (M4 muscarinic receptor; compound nos. 1-454): + (activity was measured to be greater than or equal to 4.0 μM)
22 | CCOC(=O)N1CCC(N2CCC3(CC2)CN(CCC(=O)CC)c2ccc(F)cc23)CC1 [compound 229] | < 65 | ++ (activity was measured to be between 0.7 μM and 3.0 μM) | > 70 | +++ (activity was measured to be less than or equal to 0.1 μM) | 
23 | CN(C)C(=O)N1CC2(CCN(C3CCN(c4cccc(F)c4)CC3)CC2)c2cc(F)ccc21 [compound 438] | 65 to 85 |  | 55 to 70 |  | M1 Activity (M1 muscarinic receptor; compound nos. 1-454): ++ (activity was measured to be between 0.7 μM and 3.0 μM); M4 Activity (M4 muscarinic receptor; compound nos. 1-454): +++ (activity was measured to be less than or equal to 0.1 μM)
24 | Clc1ccc2c(c1)C1(CCN([C@H]3C[C@@H]4CC[C@H]3C4)CC1)CO2 [compound 181] | 65 to 85 | ++ (activity was measured to be between 0.7 μM and 3.0 μM) | 55 to 70 | + (activity was measured to be greater than or equal to 4.0 μM) | 
